Experimental data taken from patent US20220079944A1, “2H-INDAZOLE DERIVATIVES AS THERAPEUTIC AGENTS FOR BRAIN CANCERS AND BRAIN METASTASES” (BETA PHARMA, INC., priority 2019, published 2022).
Read-outs that look alike come from different tables or passages of the source.

How the values were obtained:
[1] = target: T1, P-gp (Homo sapiens, UniProt P08183); assay: P-gp substrate potential using MDR1-MDCK monolayers (bidirectional permeability +/- valspodar); type: in vitro ADME
T1 construct: expressed in transfected cells; host or cells: MDR1-MDCK (MDCK cells expressing MDR1)
T1 sequence (P08183 whole entry): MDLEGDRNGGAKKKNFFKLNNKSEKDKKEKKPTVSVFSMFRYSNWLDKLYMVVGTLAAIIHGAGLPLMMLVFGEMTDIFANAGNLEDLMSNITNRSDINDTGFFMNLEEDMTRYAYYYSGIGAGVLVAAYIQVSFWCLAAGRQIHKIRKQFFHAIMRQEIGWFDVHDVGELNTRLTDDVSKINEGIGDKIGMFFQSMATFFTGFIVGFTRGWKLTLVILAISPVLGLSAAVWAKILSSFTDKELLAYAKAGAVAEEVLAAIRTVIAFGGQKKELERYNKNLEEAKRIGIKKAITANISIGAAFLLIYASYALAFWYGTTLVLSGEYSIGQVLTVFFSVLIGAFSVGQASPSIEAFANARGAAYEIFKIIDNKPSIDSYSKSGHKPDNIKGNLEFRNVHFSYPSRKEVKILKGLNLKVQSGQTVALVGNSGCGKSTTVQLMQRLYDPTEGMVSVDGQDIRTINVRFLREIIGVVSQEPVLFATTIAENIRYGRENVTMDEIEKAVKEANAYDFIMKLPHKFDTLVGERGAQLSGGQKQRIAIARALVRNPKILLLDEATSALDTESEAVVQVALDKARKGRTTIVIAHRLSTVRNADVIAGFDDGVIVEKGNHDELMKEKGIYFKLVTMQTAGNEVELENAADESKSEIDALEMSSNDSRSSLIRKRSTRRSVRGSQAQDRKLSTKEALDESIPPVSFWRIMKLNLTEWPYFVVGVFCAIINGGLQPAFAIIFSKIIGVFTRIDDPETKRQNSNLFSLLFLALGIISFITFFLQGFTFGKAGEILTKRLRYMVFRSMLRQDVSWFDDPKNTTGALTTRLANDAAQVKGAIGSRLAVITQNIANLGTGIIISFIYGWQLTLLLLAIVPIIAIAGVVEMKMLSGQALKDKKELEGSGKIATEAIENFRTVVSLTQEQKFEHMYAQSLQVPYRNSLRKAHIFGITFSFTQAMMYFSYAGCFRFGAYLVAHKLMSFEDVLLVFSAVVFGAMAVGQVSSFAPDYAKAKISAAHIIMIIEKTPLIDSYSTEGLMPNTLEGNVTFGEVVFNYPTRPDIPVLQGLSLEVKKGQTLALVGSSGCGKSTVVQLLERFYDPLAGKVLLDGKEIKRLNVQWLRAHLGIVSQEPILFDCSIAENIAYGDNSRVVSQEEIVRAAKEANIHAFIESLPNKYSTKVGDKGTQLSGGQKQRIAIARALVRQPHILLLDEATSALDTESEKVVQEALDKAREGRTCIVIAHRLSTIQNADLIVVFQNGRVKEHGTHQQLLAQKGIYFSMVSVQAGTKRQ
Procedure: The objective of this study was to determine the P-gp substrate potential of one test article using MDR1-MDCK monolayers.
Each determination was performed in duplicate. […] Analytical conditions are outlined in Appendix 1.
Papp=(dCr/dt)×Vr/(A×CA) (1)
Percent Recovery=100×((Vr×Cr^final)+(Vd×Cd^final))/(Vd×CN) (2) • where • dC/dt is the slope of the cumulative concentration in the receiver compartment versus time in μM s^−1; • Vr is the volume of the receiver compartment in cm^3; • Vd is the volume of the donor compartment in cm^3; • A is the area of the insert (1.13 cm^2 for 12-well); • CA is the average of the nominal dosing concentration and the measured 120 minute donor concentration in μM; • CN is the nominal concentration of the dosing solution in μM; • Cr^final is the cumulative receiver concentration in μM at the end of the incubation period; • Cd^final is the concentration of the donor in μM at the end of the incubation period.
Efflux ratio (ER) is defined as Papp (B-to-A)/Papp (A-to-B).

[2] = tested on: orthotopic U87MG-luc human glioblastoma; assay: Efficacy in combination with temozolomide against orthotopic U87MG-luc human glioblastoma in mice (bioluminescence); type: in vivo; conditions: glioblastoma model, combination with TMZ
Procedure: An efficacy and comparison study between Compound 1 and abemaciclib, in combination with temozolomide (TMZ), against orthotopic U87MG-luc human glioblastoma in mice was conducted. In each study, TMZ was dosed PO at 6 mg/kg, QD×5, and either Compound 1 or abemaciclib was dosed PO at 100 mg/kg. Tumor growth was observed by bioluminescence. […] From a broad perspective, the significant differentiation between Compound 1 and abemaciclib in a brain disease model can be traced to their distinct molecular structures. Female Envigo Nude Mice (Hsd:Athymic Nude-Fox1^nu) were used in this study. They were 6-7 weeks old on Day 1 of the experiment. The animals were fed irradiated Harlan 2918.15 Rodent Diet and water ad libitum. Animals were housed in INNOVIVE® disposable ventilated caging with corn cob bedding inside BIOBUBBLE® Clean Rooms that provide H.E.P.A filtered air into the bubble environment at 100 complete air changes per hour. All treatments, body weight determinations, and tumor measurements were carried out in the bubble environment. […] An aliquot of the homogeneous cell suspension was diluted in a trypan blue solution and counted using a Luna automated cell counter. […] Following implantation, an aliquot of the remaining cells was diluted with a trypan blue solution and counted to determine the post-implantation cell viability. […]

[3] = Brain concentration and brain/plasma ratio in mouse after 10 mg/kg p.o.; type: in vivo; conditions: for concentration at 2 h / concentration at 4 h / concentration at 8 h / concentration at 24 h: po, 10 mg/kg
[4] = brain, PO 10 mg/kg, individual animal R1, read-out: Brain Concentration, R1 + 3n
[5] = brain, PO 10 mg/kg, individual animal R2, read-out: Brain Concentration, R2 + 3n
[6] = brain, PO 10 mg/kg, individual animal R3, read-out: Brain Concentration, R3 + 3n
[7] = brain, PO 10 mg/kg, mean, read-out: Brain Concentration, Mean PO
[8] = plasma, PO 10 mg/kg, individual animal R1, read-out: Plasma Concentration, R1 + 3n
[9] = plasma, PO 10 mg/kg, individual animal R2, read-out: Plasma Concentration, R2 + 3n
[10] = plasma, PO 10 mg/kg, individual animal R3, read-out: Plasma Concentration, R3 + 3n
[11] = plasma, PO 10 mg/kg, mean, read-out: Plasma Concentration, Mean PO

P-gp substrate ([1]; MDR1-MDCK monolayers, conclusion in words): not a substrate for P-gp
recovery at 120 min, 5 μM ([1]; dog, MDCK-MDR1, pH 7.4, MDR1-MDCK, 5 μM, A-to-B, without valspodar): 22%
Papp A→B at 120 min, 5 μM ([1]; dog, MDCK-MDR1, pH 7.4, MDR1-MDCK, 5 μM, A-to-B, without valspodar, average, read-out: Papp AVG): 5.34 ×10⁻⁶ cm/s
Papp A→B at 120 min, 5 μM ([1]; dog, MDCK-MDR1, pH 7.4, MDR1-MDCK, 5 μM, A-to-B, without valspodar, replicate R1, read-out: Papp R1): 5.25 ×10⁻⁶ cm/s
Papp A→B at 120 min, 5 μM ([1]; dog, MDCK-MDR1, pH 7.4, MDR1-MDCK, 5 μM, A-to-B, without valspodar, replicate R2, read-out: Papp R2): 5.43 ×10⁻⁶ cm/s
recovery at 120 min, 5 μM ([1]; dog, MDCK-MDR1, pH 7.4, MDR1-MDCK, 5 μM, B-to-A, without valspodar): 51%
Papp B→A at 120 min, 5 μM ([1]; dog, MDCK-MDR1, pH 7.4, MDR1-MDCK, 5 μM, B-to-A, without valspodar, average, read-out: Papp AVG): 7.77 ×10⁻⁶ cm/s
Papp B→A at 120 min, 5 μM ([1]; dog, MDCK-MDR1, pH 7.4, MDR1-MDCK, 5 μM, B-to-A, without valspodar, replicate R1, read-out: Papp R1): 7.14 ×10⁻⁶ cm/s
Papp B→A at 120 min, 5 μM ([1]; dog, MDCK-MDR1, pH 7.4, MDR1-MDCK, 5 μM, B-to-A, without valspodar, replicate R2, read-out: Papp R2): 8.4 ×10⁻⁶ cm/s
recovery at 120 min, 5 μM ([1]; dog, MDCK-MDR1, pH 7.4, with valspodar 1 μM, MDR1-MDCK, 5 μM, A-to-B, + 1 μM Valspodar): 19%
recovery at 120 min, 5 μM ([1]; dog, MDCK-MDR1, pH 7.4, with valspodar 1 μM, MDR1-MDCK, 5 μM, B-to-A, + 1 μM Valspodar): 63%
efflux ratio at 120 min, 5 μM ([1]; dog, pH 7.4, MDR1-MDCK, Papp (B-to-A)/Papp (A-to-B), without valspodar): 1.5
Brain concentration relative to that of abemaciclib ([3]; 10 mg/kg p.o., higher than abemaciclib): approximately 3 fold
Kp ([3]; PO 10 mg/kg, brain AUC0-last / plasma AUC0-last, read-out: AUC0-last Ratio, brain/plasma (B/P) ratio): 1.43
Brain AUC0-last ([3]; PO 10 mg/kg, brain, from mean concentrations): 11966 ng·h/g
AUC(0-t) ([3]; PO 10 mg/kg, plasma, from mean concentrations, read-out: Plasma AUC0-last): 8380 ng·h/mL
concentration at 2 h [3, 4]: 954 ng/g
concentration at 2 h [3, 5]: 630 ng/g
concentration at 2 h [3, 6]: 1100 ng/g
concentration at 2 h [3, 7]: 894 ng/g
concentration at 4 h [3, 4]: 1190 ng/g
concentration at 4 h [3, 5]: 1060 ng/g
concentration at 4 h [3, 6]: 1220 ng/g
concentration at 4 h [3, 7]: 1160 ng/g
concentration at 8 h [3, 4]: 1150 ng/g
concentration at 8 h [3, 5]: 1380 ng/g
concentration at 8 h [3, 6]: 1220 ng/g
concentration at 8 h [3, 7]: 1250 ng/g
concentration at 24 h [3, 4]: 9.06 ng/g
concentration at 24 h [3, 5]: 8.64 ng/g
concentration at 24 h [3, 6]: 15.8 ng/g
concentration at 24 h [3, 7]: 11.2 ng/g
concentration at 2 h [3, 8]: 833 ng/mL
concentration at 2 h [3, 9]: 500 ng/mL
concentration at 2 h [3, 10]: 748 ng/mL
concentration at 2 h [3, 11]: 694 ng/mL
concentration at 4 h [3, 8]: 669 ng/mL
concentration at 4 h [3, 9]: 543 ng/mL
concentration at 4 h [3, 10]: 1180 ng/mL
concentration at 4 h [3, 11]: 797 ng/mL
concentration at 8 h [3, 8]: 868 ng/mL
concentration at 8 h [3, 9]: 1030 ng/mL
concentration at 8 h [3, 10]: 722 ng/mL
concentration at 8 h [3, 11]: 873 ng/mL
concentration at 24 h [3, 8]: 4.36 ng/mL
concentration at 24 h [3, 9]: 5.3 ng/mL
concentration at 24 h [3, 10]: 10.6 ng/mL
concentration at 24 h [3, 11]: 6.75 ng/mL
SMILES: CCN1CCN(Cc2ccc(Nc3ncc(F)c(-c4ccc5nn(C)c(C(C)C)c5c4)n3)nc2)CC1 [Compound 1, N-(5-((4-ethylpiperazin-1-yl)methyl)pyridin-2-yl)-5-fluoro-4-(3-isopropyl-2-methyl-2H-indazol-5-yl)pyrimidin-2-amine]
P-gp Substrate Classification ([1]; MDR1-MDCK, 5 μM, +/− 1 μM valspodar): Negative (ER≥2.0 without valspodar, and reduced by <50% with valspodar: Negative)
In vivo efficacy relative to abemaciclib [2]: superior in vivo efficacy
